Source: BindingDB's records for doi:10.1016/j.bioorg.2017.03.006 (CSIR-Indian Institute of Chemical Biology, 2017)

Target: Alpha-glucosidase MAL32 (Saccharomyces cerevisiae (strain ATCC 204508 / S288c), UniProt P38158)
Assay: α-Glucosidase Inhibition Assay
Conditions: pH 6.8; 37 °C
Description: Briefly, the sample solution (25 μL, 1.0 mM solution in DMSO) was mixed with enzyme solution (25 μL, 0.5 U/mL prepared in 0.1 M phosphate buffer, pH 6.8). […] After the incubation, the substrate p-nitrophenyl α-D-glucopyranoside (25 μL, 0.5 mM, 0.1 Mphosphate buffer, pH 6.8) was added to the mixture and allowed to incubate at 37 ± 1 °C for 30 min. The reaction was then terminated by the addition of aqueous solution of sodium carbonate (100 μL, 0.2 M). […] The uninhibited enzyme solution was taken as blank and an appropriate DMSO control was used. […] The concentration of DMSO in the final solution was maintained below 5.0% so that the enzyme activity was not destroyed.

Sequence of Alpha-glucosidase MAL32 (P38158 whole entry): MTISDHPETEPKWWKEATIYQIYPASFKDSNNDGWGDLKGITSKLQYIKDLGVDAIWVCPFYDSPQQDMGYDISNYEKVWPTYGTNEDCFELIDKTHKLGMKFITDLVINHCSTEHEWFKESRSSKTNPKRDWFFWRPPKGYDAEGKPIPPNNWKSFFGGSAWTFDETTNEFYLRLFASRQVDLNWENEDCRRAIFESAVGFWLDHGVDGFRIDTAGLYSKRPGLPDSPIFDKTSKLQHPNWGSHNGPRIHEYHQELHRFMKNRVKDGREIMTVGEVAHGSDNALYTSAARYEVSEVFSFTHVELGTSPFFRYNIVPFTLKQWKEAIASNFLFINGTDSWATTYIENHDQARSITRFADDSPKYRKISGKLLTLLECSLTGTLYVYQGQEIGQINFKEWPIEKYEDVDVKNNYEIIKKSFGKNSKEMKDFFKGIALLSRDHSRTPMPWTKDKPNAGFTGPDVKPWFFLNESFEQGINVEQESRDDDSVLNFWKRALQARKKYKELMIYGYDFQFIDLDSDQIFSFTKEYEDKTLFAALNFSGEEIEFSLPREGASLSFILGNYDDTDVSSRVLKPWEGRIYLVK

Q: For `O=C(CCc1cn(-c2ccc(O)cc2)nn1)N[C@@H]1OC(CO)[C@@H](O)C(O)C1O` (stereo partly drawn) [3-[1-(4-Hydroxyphenyl)-1H-[1,2,3]triazol-4-yl]-N-(2,3,4,6-tetra-O-acetyl-β-D-glucopyranosyl)propanamide (4f)], which IC50 is on record?
A: 148 µM
